Data as given in ChEMBL document CHEMBL5653595 (J Biol Chem, 2003).
Activity calls are given as the source filed them. The rule behind the calls is not given here.

Columns and labels:
[1] = biological target: Receptor tyrosine-protein kinase erbB-2 (Homo sapiens) (UniProt P04626); assay: Inhibition of recombinant human Her2 at 100 uM
[2] = Volume of distribution at steady state in BALB/c mouse at 2 mg/kg, iv measured upto 8 hrs by LC-MS-MS analysis; format: ADME, organism-based; conditions: in vivo, read-out: Vdss
[3] = Oral bioavailability in BALB/c mouse at 10 mg/kg measured upto 8 hrs by LC-MS-MS analysis; format: ADME, organism-based; conditions: in vivo
[4] = species: Homo sapiens; assay: Inhibition of recombinant human MAPK at 100 uM
[5] = tested on: THP-1; assay: Antiinflammatory activity against LPS-induced human THP-1 cells assessed as reduction in IL-1beta cytokine level preincubated for 1 hr followed by LPS-stimulation and measured after 6 hrs by enzyme immunoassay; format: functional, cell-based
[6] = Half life in BALB/c mouse at 2 mg/kg, iv measured upto 8 hrs by LC-MS-MS analysis; format: ADME, organism-based; conditions: in vivo
[7] = tested on: THP-1; assay: Antiinflammatory activity against LPS-induced human THP-1 cells assessed as reduction in TNFalpha cytokine level preincubated for 1 hr followed by LPS-stimulation and measured after 6 hrs by enzyme immunoassay; format: functional, cell-based
[8] = biological target: Mitogen-activated protein kinase 1 (Homo sapiens) (UniProt P28482); assay: Inhibition of recombinant human ERK2 at 100 uM
Chain of Mitogen-activated protein kinase 1 (Homo sapiens) (P28482 whole entry): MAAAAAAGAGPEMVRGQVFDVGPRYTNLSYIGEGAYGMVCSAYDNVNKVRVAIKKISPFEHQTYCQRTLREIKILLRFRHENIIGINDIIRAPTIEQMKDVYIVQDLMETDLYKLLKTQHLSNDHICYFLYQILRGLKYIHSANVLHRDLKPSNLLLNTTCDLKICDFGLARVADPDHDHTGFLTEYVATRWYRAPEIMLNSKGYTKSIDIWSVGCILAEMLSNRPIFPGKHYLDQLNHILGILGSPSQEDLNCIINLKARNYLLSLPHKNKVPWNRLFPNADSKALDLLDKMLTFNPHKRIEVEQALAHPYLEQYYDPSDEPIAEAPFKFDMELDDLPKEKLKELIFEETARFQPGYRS

[9] = tested on: Mus musculus; assay: Antiinflammatory activity against LPS-induced BALB/c mouse assessed as reduction in TNFalpha cytokine level at 10 mg/kg, po pretreated for 1 hr followed by LPS-stimulation and measured after 90mins by enzyme immunoassay; format: functional; parameters: scale not given: the % may be the effect or the level left; conditions: time 150 min, 2.5 h
[10] = biological target: MAP kinase-activated protein kinase 2 (Homo sapiens) (UniProt P49137); assay: Inhibition of recombinant human MAPKAPK2 at 100 uM
Chain of MAP kinase-activated protein kinase 2 (Homo sapiens) (P49137 whole entry, looked up): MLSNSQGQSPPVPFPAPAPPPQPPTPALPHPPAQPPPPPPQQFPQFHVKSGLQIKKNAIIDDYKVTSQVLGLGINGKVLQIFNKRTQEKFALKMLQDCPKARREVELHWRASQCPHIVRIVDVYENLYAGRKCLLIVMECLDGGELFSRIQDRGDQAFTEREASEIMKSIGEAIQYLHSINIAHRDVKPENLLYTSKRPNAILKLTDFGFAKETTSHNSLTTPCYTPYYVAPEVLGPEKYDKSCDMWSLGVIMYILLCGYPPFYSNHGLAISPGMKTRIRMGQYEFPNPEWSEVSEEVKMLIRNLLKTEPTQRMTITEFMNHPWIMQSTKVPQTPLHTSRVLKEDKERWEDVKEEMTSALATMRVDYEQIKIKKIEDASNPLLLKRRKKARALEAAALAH

[11] = Cmax in BALB/c mouse at 10 mg/kg, po measured upto 8 hrs by LC-MS-MS analysis; format: ADME, organism-based; conditions: in vivo
[12] = tested on: THP-1; assay: Antiinflammatory activity against LPS-induced human THP-1 cells assessed as reduction in IL-6 cytokine level preincubated for 1 hr followed by LPS-stimulation and measured after 24 hrs by enzyme immunoassay; format: functional, cell-based
[13] = biological target: Mitogen-activated protein kinase 14 (Homo sapiens) (UniProt Q16539); assay: Inhibition of recombinant human P38alpha at 100 uM
Chain of Mitogen-activated protein kinase 14 (Homo sapiens) (Q16539 whole entry): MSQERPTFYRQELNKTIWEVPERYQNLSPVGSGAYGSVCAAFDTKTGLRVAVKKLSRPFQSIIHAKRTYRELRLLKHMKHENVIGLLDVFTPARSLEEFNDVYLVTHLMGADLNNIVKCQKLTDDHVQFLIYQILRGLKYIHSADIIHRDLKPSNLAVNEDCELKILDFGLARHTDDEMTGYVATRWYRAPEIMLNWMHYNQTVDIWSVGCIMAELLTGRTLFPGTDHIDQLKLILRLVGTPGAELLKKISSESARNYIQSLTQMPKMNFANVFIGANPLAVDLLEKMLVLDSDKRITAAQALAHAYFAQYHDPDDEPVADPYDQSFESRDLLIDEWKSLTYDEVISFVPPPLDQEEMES

[14] = tested on: THP-1; assay: Cytotoxicity against human THP-1 cells by trypan blue exclusion assay; format: toxicity, cell-based
[15] = Tmax in BALB/c mouse at 10 mg/kg, po measured upto 8 hrs by LC-MS-MS analysis; format: ADME, organism-based; conditions: in vivo
[16] = Aqueous solubility of compound; format: physicochemical; conditions: buffer
[17] = biological target: Signal transducer and activator of transcription 3 (Homo sapiens) (UniProt P40763); assay: Inhibition of EGF-stimulated STAT3 phosphorylation in human NCI-H292 cells at 100 uM pre incubated for 60 mins followed by […] stimulation for 5 mins by immunoblot analysis; format: cell-based; conditions: time 65.0 min
Chain of Signal transducer and activator of transcription 3 (Homo sapiens) (P40763 whole entry): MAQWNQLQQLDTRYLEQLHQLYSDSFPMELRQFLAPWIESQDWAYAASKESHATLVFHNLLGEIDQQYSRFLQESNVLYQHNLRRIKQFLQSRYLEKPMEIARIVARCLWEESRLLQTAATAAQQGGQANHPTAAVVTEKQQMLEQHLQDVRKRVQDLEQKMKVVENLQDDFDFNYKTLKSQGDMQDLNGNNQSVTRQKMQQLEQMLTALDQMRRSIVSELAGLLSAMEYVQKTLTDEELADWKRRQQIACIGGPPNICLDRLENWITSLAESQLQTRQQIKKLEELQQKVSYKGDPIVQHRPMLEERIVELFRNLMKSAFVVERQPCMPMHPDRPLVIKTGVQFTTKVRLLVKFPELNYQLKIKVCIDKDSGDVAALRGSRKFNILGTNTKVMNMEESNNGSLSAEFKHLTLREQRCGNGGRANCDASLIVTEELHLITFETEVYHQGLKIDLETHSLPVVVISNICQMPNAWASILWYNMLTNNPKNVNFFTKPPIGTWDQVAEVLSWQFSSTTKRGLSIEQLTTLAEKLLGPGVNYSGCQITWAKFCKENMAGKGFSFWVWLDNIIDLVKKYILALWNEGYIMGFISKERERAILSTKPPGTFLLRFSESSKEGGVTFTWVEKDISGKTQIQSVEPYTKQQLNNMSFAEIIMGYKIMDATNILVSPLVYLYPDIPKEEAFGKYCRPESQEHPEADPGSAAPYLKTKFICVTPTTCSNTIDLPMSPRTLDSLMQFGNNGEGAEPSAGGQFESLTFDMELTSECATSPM

[18] = tested on: Mus musculus; assay: Antiinflammatory activity against LPS-induced po dosed BALB/c mouse assessed as reduction in TNFalpha cytokine level pretreated for 1 hr followed by LPS-stimulation and measured after 90mins by enzyme immunoassay; format: functional, organism-based; conditions: dose 1-100 mg/kg, time 150.0 min
[19] = biological target: Tyrosine-protein kinase Lck (Homo sapiens) (UniProt P06239); assay: Inhibition of recombinant human LCK at 100 uM
Chain of Tyrosine-protein kinase Lck (Homo sapiens) (P06239 2-509 limits assumed): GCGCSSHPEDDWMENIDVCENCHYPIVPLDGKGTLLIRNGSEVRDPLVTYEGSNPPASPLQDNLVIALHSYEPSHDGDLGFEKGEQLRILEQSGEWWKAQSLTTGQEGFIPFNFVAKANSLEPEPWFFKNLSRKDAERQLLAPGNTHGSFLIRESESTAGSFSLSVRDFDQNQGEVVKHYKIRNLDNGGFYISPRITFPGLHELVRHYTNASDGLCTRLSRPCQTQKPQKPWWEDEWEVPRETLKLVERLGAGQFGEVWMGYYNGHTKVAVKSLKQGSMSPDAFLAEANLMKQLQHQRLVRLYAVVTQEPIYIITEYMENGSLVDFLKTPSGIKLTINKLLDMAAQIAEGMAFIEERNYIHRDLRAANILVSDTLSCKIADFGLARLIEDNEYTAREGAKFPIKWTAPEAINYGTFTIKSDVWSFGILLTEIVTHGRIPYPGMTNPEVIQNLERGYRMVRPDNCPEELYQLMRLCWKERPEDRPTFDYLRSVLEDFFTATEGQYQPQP

[20] = biological target: Epidermal growth factor receptor (Homo sapiens) (UniProt P00533); assay: Inhibition of recombinant human Her1 at 100 uM
[21] = biological target: T1, Inhibitor of nuclear factor kappa-B kinase subunit epsilon (Homo sapiens) (UniProt Q14164); assay: Inhibition of GST-tagged IKKE (unknown origin) expressed in High five cells using LDDRHDSGLDSMKDEEY as substrate incubated for 5 mins in presence of [gamma33P]ATP by liquid scintillation counter analysis
T1 sequence (whole entry): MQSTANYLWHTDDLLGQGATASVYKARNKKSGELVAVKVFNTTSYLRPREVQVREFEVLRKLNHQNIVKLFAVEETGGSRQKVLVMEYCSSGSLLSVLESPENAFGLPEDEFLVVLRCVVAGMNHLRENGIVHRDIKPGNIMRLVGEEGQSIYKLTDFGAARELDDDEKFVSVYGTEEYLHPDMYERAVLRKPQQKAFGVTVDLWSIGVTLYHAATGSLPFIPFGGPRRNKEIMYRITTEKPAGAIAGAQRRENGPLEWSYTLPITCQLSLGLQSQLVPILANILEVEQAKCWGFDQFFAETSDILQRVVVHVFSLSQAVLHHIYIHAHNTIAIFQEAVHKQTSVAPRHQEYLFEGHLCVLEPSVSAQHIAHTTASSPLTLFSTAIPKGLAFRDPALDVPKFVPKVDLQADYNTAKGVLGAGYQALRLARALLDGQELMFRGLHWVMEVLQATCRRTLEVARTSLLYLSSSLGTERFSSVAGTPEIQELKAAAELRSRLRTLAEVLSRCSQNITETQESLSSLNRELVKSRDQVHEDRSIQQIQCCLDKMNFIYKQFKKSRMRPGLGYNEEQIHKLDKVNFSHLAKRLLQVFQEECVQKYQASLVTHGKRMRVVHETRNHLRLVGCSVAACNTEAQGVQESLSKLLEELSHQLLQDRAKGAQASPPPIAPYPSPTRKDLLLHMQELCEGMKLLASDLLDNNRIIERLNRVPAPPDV

[22] = biological target: Protein kinase C alpha type (Homo sapiens) (UniProt P17252); assay: Inhibition of recombinant human PKCalpha at 100 uM
[23] = Total clearance in BALB/c mouse at 2 mg/kg, iv measured upto 8 hrs by LC-MS-MS analysis; format: ADME, organism-based; conditions: in vivo
[24] = biological target: T2, Protein kinase C zeta type (Homo sapiens) (UniProt Q05513); assay: Inhibition of recombinant human PKCzeta at 100 uM
T2 sequence (whole entry): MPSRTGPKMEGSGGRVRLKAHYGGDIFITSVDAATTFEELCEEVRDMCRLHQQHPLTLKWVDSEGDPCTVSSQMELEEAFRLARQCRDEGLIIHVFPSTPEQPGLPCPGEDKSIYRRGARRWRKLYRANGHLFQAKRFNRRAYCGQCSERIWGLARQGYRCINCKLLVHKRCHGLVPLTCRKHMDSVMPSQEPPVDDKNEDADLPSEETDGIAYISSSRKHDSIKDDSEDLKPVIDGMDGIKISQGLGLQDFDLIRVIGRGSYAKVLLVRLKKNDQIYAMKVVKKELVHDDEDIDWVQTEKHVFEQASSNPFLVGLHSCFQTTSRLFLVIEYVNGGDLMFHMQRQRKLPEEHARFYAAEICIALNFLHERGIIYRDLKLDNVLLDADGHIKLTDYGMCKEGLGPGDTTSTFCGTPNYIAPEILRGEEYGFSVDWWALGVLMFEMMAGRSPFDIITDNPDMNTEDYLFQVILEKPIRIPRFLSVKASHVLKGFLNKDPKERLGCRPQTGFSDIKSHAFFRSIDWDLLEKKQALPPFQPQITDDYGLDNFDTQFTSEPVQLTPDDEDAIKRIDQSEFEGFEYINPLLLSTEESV

[25] = biological target: T3, Tyrosine-protein kinase ITK/TSK (Homo sapiens) (UniProt Q08881); assay: Inhibition of recombinant human EMT at 100 uM
T3 sequence (whole entry): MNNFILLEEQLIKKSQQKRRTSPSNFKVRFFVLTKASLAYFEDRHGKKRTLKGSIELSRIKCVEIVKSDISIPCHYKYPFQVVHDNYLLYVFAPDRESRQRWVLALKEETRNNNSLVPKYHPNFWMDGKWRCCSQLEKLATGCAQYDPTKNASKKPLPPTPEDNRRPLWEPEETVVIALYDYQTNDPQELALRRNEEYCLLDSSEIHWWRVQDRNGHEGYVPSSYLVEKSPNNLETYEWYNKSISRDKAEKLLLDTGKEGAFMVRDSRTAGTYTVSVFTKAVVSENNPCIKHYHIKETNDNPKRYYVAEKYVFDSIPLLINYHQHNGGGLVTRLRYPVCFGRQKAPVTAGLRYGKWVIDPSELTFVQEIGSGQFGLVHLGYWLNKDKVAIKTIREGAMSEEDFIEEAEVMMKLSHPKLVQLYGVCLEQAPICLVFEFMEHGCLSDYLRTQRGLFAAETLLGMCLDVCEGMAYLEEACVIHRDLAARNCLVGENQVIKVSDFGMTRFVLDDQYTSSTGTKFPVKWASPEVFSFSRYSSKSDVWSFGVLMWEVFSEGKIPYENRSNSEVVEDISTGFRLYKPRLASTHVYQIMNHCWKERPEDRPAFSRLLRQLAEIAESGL

[26] = biological target: MAP kinase-activated protein kinase 2 (Homo sapiens) (UniProt P49137); assay: Inhibition of LPS-stimulated MAPKAPK2 activation in human THP-1 cells at 100 uM using [33P]ATP as substrate pre incubated for 60 mins followed by LPS-stimulation for 30 mins; format: cell-based; conditions: time 90.0 min
[27] = tested on: THP-1; assay: Antiinflammatory activity against LPS-induced human THP-1 cells assessed as reduction in IL-8 cytokine level preincubated for 1 hr followed by LPS-stimulation and measured after 6 hrs by enzyme immunoassay; format: functional, cell-based
[28] = tested on: Mus musculus; assay: Antiinflammatory activity against LPS-induced BALB/c mouse assessed as reduction in TNFalpha cytokine level at 100 mg/kg, po pretreated for 1 hr followed by LPS-stimulation and measured after 90mins by enzyme immunoassay; format: functional; parameters: scale not given: the % may be the effect or the level left; conditions: time 150 min, 2.5 h
[29] = biological target: T4, Tyrosine-protein kinase JAK3 (Homo sapiens) (UniProt P52333); assay: Inhibition of recombinant human JAK3 at 100 uM
T4 sequence (whole entry): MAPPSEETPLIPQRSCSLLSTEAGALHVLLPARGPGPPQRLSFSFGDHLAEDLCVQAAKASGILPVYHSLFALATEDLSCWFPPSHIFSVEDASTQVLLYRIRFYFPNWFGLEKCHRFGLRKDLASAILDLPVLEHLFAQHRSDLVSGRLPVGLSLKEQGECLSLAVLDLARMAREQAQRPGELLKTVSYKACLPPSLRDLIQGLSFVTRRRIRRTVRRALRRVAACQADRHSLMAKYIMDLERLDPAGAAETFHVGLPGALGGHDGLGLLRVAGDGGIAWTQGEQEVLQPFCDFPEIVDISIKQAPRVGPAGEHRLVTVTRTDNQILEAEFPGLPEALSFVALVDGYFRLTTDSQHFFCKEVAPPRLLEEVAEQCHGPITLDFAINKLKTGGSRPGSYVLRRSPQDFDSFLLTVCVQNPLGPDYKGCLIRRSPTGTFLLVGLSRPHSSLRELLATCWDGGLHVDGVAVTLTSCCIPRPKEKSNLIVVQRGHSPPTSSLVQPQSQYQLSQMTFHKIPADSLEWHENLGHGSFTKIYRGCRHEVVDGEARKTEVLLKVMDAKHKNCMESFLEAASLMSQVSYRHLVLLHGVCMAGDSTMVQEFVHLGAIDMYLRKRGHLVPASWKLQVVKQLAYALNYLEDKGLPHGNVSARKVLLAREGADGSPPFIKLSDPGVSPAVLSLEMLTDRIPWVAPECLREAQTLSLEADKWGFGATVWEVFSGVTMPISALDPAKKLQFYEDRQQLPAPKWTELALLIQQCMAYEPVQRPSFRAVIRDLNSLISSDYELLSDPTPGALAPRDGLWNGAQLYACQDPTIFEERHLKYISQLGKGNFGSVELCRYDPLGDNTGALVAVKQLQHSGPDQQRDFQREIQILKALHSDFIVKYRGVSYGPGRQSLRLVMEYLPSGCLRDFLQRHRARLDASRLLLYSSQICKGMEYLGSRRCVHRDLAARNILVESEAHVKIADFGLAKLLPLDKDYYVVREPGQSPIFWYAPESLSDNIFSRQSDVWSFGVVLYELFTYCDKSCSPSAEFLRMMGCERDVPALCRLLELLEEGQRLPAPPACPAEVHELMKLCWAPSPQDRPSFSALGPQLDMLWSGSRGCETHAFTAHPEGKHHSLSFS

[30] = biological target: Insulin-like growth factor 1 receptor (Homo sapiens) (UniProt P08069); assay: Inhibition of recombinant human IGF1R at 100 uM
Chain of Insulin-like growth factor 1 receptor (Homo sapiens) (P08069 31-736 limits assumed): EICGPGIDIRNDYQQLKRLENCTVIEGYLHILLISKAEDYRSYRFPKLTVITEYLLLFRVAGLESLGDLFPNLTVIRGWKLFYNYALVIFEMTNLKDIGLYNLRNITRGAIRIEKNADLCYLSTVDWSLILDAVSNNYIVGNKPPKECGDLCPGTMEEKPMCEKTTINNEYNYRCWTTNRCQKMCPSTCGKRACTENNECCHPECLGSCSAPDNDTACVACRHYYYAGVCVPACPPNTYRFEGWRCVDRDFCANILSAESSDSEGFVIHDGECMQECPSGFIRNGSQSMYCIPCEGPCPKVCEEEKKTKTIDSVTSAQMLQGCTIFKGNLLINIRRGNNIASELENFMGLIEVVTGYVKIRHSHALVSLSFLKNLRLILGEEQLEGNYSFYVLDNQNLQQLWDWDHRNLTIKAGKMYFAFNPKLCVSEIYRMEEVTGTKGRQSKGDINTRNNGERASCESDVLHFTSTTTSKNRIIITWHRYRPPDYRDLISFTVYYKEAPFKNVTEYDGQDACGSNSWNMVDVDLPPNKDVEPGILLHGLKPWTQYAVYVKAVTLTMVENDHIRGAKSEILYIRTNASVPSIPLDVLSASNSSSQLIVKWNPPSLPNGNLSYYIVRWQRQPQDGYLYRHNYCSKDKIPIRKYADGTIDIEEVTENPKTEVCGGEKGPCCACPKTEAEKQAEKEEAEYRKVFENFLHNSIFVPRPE
Chain of Insulin-like growth factor 1 receptor (Homo sapiens) (P08069 741-1367 limits assumed): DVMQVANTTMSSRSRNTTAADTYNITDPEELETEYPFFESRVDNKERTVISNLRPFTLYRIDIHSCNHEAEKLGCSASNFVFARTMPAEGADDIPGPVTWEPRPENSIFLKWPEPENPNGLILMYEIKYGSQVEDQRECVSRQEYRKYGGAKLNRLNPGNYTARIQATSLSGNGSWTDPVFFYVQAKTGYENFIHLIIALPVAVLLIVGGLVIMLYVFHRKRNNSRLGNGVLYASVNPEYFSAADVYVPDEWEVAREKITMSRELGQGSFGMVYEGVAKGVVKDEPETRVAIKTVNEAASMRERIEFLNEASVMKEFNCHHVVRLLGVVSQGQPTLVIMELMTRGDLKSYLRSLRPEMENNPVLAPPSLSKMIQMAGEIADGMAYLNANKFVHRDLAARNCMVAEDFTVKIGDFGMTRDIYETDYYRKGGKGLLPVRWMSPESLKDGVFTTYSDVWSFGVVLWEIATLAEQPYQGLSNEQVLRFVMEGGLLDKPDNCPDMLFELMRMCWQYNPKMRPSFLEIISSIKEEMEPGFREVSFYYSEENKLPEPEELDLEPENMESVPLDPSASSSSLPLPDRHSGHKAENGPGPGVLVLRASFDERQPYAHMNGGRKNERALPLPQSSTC

Chain of Receptor tyrosine-protein kinase erbB-2 (Homo sapiens) (P04626 whole entry): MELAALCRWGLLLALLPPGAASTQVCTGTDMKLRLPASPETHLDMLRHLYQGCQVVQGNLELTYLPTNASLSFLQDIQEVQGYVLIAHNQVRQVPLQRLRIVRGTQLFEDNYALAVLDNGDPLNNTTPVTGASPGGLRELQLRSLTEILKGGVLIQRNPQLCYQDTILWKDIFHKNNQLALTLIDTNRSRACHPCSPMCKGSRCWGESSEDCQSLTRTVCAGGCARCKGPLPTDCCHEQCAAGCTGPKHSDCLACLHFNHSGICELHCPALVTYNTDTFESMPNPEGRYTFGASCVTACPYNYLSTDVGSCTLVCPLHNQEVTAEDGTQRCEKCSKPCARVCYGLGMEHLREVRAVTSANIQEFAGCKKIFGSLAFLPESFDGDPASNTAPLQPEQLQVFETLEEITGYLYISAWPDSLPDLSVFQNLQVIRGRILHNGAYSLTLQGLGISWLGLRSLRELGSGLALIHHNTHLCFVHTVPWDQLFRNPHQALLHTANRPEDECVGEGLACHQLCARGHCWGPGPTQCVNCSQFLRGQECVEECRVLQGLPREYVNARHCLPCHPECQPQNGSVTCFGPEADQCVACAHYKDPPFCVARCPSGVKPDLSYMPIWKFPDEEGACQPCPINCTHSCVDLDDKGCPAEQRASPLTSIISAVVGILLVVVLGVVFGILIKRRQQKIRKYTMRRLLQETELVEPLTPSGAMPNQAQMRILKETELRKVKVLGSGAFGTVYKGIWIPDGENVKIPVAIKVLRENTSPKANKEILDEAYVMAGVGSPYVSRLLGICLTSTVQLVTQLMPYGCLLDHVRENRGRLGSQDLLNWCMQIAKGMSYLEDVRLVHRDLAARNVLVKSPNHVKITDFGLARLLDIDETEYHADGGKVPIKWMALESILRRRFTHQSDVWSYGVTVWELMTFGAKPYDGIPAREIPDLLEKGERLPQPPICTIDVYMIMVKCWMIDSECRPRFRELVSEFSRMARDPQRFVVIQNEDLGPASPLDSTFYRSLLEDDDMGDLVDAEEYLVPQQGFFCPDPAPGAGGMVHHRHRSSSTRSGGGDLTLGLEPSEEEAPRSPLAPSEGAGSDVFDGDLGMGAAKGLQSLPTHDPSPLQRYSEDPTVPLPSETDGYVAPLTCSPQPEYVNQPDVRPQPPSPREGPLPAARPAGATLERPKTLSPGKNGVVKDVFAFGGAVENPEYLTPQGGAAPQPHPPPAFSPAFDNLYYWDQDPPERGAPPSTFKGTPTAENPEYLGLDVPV

- inhibition [1]: inactive
- Vd [2]: 18.5 L/kg
- bioavailability [3]: ~100%
- inhibition [4]: inactive
- IC50 [5]: 1 µM
- half-life [6]: 2.2 h
- IC50 [7]: 1 µM
- inhibition [8]: inactive
- inhibition [10]: inactive
- Cmax [11]: 1600 nM
- IC50 [12]: 1 µM
- inhibition [13]: inactive
- Tmax [15]: 0.52 h
- solubility [16]: Soluble
- inhibition [17]: inactive
- Activity [18]: Dose-Dependent Effect
- inhibition [19]: inactive
- inhibition [20]: inactive
- inhibition [21]: inactive
- inhibition [22]: inactive
- clearance [23]: 114 mL/min/kg
- inhibition [24]: inactive
- inhibition [25]: inactive
- inhibition [26]: inactive
- IC50 [27]: 1 µM
- inhibition [29]: inactive
- inhibition [30]: inactive
Compound: Cc1ccc2nc(NCCN)c3ncc(C)n3c2c1 [BMS-345541]
- Activity [9]: 50%
- Activity [14]: Non-Toxic
- Activity [28]: 100%
